Residues, ends and D or L forms follow the SMILES beside them.
Assay: Channel current (electrophysiological) analysis of peptide-induced pores
Type: physicochemical
Settings: planar DOPC bilayer, 10 µM peptide, 100 mV; pH 7.0
Protocol: Electrophysiological measurements were performed using a MECA 16 TC chip with an Orbit 16 TC device (Nanion Technologies GmbH, Munich, Germany) according to the manufacturer’s instructions. The MECA 16 TC chamber was filled with 200 µL of buffer solution (150 mM KCl, 10 mM MOPS, pH 7.0); 1 µL of DOPC (lipid/n-decan, 10 mg/mL) solution was added to the chamber, and planar lipid bilayers were automatically prepared using the Orbit 16TC stirrer. The peptide was then dissolved in the chamber at 10 µM (a lipid/peptide molar ratio of ~ 6 in the chamber system), and 100 mV of voltage was applied. The channel current was monitored using the Orbit 16 TC Elements Data Reader 4 v.1.0.22. The channel current signals were detected using a 4-kHz low-pass filter at a sampling frequency of 20 kHz. Analysis of the channel signals was performed using pCLAMP ver. 10.7 (Molecular Devices, CA, USA). The data obtained in this measurement are n (number of current signals): 2081 > n > 311; N (number of experiments) > 3.

Structure (SMILES): CC(=O)N[C@@H](CC(C)C)C(=O)N[C@@H](CCCNC(=N)N)C(=O)N[C@@H](CCCCN)C(=O)N[C@@H](CC(C)C)C(=O)N[C@@H](CCCNC(=N)N)C(=O)N[C@@H](CCCCN)C(=O)N[C@@H](CCCNC(=N)N)C(=O)N[C@@H](CC(C)C)C(=O)N[C@@H](CC(C)C)C(=O)N[C@@H](CCCNC(=N)N)C(=O)N[C@@H](CC(C)C)C(=O)N[C@@H](Cc1c[nH]c2ccccc12)C(=O)N[C@@H](CCCCN)C(=O)N[C@@H](CC(C)C)C(=O)N[C@@H](CCCNC(=N)N)C(=O)N[C@@H](CCCCN)C(=O)N[C@@H](CCCNC(=N)N)C(N)=O [A2-17] (Ac-LRKLRKRLLRLWKLRKR-NH2)
- charge flux accompanied by spike current signal: much greater for A2-17 than that for StpA2-17 or StchA2-17
